Assay [1] concerns phenylephrine pressor responses. Kind of assay: Antagonism to phenylephrine pressor responses in pithed rats. In kind it is in vivo. The conditions noted are these: for change in vivo at […] / ED50: Rattus norvegicus, iv; for change in vivo at […]: read-out: Effects on pressor response of Phenylephrine, % eff. of […], pithed rats, […], jugular vein, read-out: Effects on pressor response of Phenylephrine, % eff. of 0.31 mg/kg; for ED50: read-out: Effects on pressor response of Phenylephrine, ED50; for Phenylephr. antg./5-HT antg. (ratio): ratio of phenylephrine ED50 to 5-HT ED50.

Assay [2] has as its system methylphenidate induced stereotypies. In words: Methylphenidate Antagonism. In kind it is in vivo, mice. The conditions noted are these: Mus musculus, ip, read-out: MePh antg. ED50, i.p., mice, 2 hours before methylphenidate 60 mg/kg s.c. The protocol: The experiments were made as described by Pedersen and Christensen (1972) Acta Pharmacol. et Toxicol. 31, 488-496.--Briefly, test compounds or saline were injected i.p. 2 hours before methylphenidate, 60 mg/kg s.c. 3 pairs of mice were used for each dose level. After methylphenidate injection the mice were placed in observation cages for one hour. The cages were placed on corrugated paper, the corrugation facing upwards.

Assay [3] has as its system spontaneous hypertensive rats (SHR). In words: Antihypertensive effect in spontaneous hypertensive rats (SHR). Type of assay: in vivo. The conditions noted are these: for change in vivo at 5 mg/kg / ED10: Rattus norvegicus, ip; for change in vivo at 5 mg/kg: 1 h.
For assay [4], the system named is Quipazine-induced head shakes. Kind of assay: Quipazine-induced head shakes. In kind it is in vivo. The conditions noted are these: Rattus norvegicus, sc, rats, 2 hours before quipazine 5 mg/kg s.c.; read-out: Quipazine antg. (Q) ED50. As for the experimental part:
The rats were pretreated subcutaneously with test compound or saline 2 hours before injection of quipazine (5 mg/kg s.c.). The rats were then placed individually in perspex observation cages (12×25 cm), and in standard experiments the number of head shakes (involving the head and sometimes part of the body) were counted for 10 min., 30-40 min. after quipazine, where the effect was maximal. The number of head shakes in each dose group were expressed in percent of those induced in the control group, and ED50 values were calculated by log-probit analysis of results from at least 3 doses.
(§1) Each group consisted of 4-12 rats.

The subject of the next assay is 5-HT pressor responses. Kind of assay: Antagonism to 5-HT pressor responses in pithed rats. Type of assay: in vivo. The conditions noted are these: for change in vivo at 0.02 mg/kg / ED50: Rattus norvegicus, iv; for change in vivo at 0.02 mg/kg: read-out: Effects on pressor response of 5-HT, % eff. of 0.02 mg/kg; for ED50: read-out: Effects on pressor response of 5-HT, ED50, pithed rats, jugular vein.

Assay [5] has as its system 1-5-HTP-induced head shakes. In words: 1-5-HTP-induced head shakes. In kind it is in vivo. The conditions noted are these: s.c., rats, 1-5-HTP 75 mg/kg i.p. after citalopram. The protocol: The rats were pretreated subcutaneously with test compound or saline simultaneously with or 90 min before injection of citalopram (10 mg/kg s.c.).
as §1

Another assay has as its target T1, 5-HT2 receptors (Rattus norvegicus, UniProt P14842).
T1 construct: Rat whole cortex was homogenized by an Ultra Turrax homogenizer; from tissue; host or cells: rat whole cerebral cortex, crude washed membranes
Kind of assay: 3H-spiroperidol binding to 5-HT2 receptors. The conditions noted are these: rat whole cortex, 0.5 nM 3H-spiroperidol, 0.3 μM sulpiride; read-out: 3H-SPI binding 5-HT2 IC50.

The mark [6] stands for this setting: 5 mg/kg ip, diastolic pressure (DAP), max change within one hour, read-out: Antihypertensive eff. SHR, max eff. in % of 5 mg/kg ip, DAP.
The mark [7] stands for this setting: 5 mg/kg ip, systolic pressure (SAP), max change within one hour, read-out: Antihypertensive eff. SHR, max eff. in % of 5 mg/kg ip, SAP.
The mark [8] stands for this setting: 5 mg/kg ip, diastolic pressure (DAP), max change within one hour.
Setting [9] is: 5 mg/kg ip, systolic pressure (SAP), max change within one hour.
Setting [10] is: read-out: Antihypertensive eff. SHR, ED10 DAP.
Setting [11] is: read-out: Antihypertensive eff. SHR, ED10 SAP.

Here are results for eight compounds from patent US4684650A, “Antihypertensive fluorophenylindanyl imidazolidinoneethylpiperazines” (priority 1984, dated 1987).

Read-outs that look alike come from different tables or passages of the source. Bounds are passed on as bounds.

T1 sequence (P14842 whole entry): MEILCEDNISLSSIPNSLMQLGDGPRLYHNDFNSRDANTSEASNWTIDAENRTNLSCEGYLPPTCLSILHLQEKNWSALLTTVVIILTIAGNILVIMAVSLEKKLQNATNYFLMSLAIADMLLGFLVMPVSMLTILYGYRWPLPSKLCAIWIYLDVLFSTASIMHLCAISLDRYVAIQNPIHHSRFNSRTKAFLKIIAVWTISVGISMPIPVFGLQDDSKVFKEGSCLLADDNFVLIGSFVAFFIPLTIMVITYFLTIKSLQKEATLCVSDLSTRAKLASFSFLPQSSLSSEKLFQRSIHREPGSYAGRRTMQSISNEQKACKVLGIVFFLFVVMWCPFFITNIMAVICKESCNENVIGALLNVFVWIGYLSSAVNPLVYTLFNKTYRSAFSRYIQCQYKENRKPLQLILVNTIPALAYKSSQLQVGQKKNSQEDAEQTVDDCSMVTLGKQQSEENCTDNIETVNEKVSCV

For the compound `O=C1CCCN1CCN1CCN([C@@H]2C[C@@H](c3ccc(F)cc3)c3ccc(Cl)cc32)CC1` (relative stereo) [compound 21], the change in vivo at […] in assay [1] is 3%. For the same compound, the ED50 amounted to 11 µmol/kg in assay [2] and 0.079 µmol/kg in assay [4]. Besides, the change in vivo at 5 mg/kg in assay [3] (setting [6]) is -14%; in assay [3] (setting [7]) it was -11%. Moreover, in the assay with 5-HT pressor responses (pithed rats, jugular vein), the change in vivo at 0.02 mg/kg was -83%.
As for `O=C1OCCN1CCN1CCN([C@@H]2C[C@@H](c3ccc(F)cc3)c3ccc(Cl)cc32)CC1` (relative stereo) [compound 22], in assay [1], the change in vivo at […] was -5%. Further, the figures for the ED50 in assay [2] and in assay [4] were 2.8 µmol/kg and 0.12 µmol/kg, respectively. For the same compound, the change in vivo at 5 mg/kg in assay [3] (setting [6]) was -21%; in assay [3] (setting [7]), -17%. For the same compound, the change in vivo at 0.02 mg/kg with 5-HT pressor responses (pithed rats, jugular vein) is -77%.
For the compound `Fc1ccc([C@@H]2C[C@@H](N3CCN(CCN4CCNC4=S)CC3)c3cc(Cl)ccc32)cc1` (relative stereo) [compound 28], the change in vivo at […] in assay [1] was -22%. Also, the ED50 turned out to be 4.5 µmol/kg in assay [2] and 0.017 µmol/kg in assay [4]. The change in vivo at 5 mg/kg in assay [3] (setting [6]) is -10%; in assay [3] (setting [7]) it was -6%. Moreover, the change in vivo at 0.02 mg/kg in the assay on 5-HT pressor responses (pithed rats, jugular vein) was -93%.
Take `Fc1ccc([C@@H]2C[C@@H](N3CCN(CCN4CCCC4=S)CC3)c3cc(Cl)ccc32)cc1` (relative stereo) [compound 29, (±)Trans-1-[3-(4-fluorophenyl)-6-chlorindan-1-yl]-4-[2-(2-pyrrolidinthion-1-yl)ethyl]piperazine]: in assay [1], the change in vivo at […] came to 8%. The change in vivo at 5 mg/kg in assay [3] (setting [6]) was -4%; in assay [3] (setting [7]), -5%. Also, in assay [4], the ED50 is less than 0.17 µmol/kg. The change in vivo at 0.02 mg/kg in the assay on 5-HT pressor responses (pithed rats, jugular vein) was -88%.
`O=C1NCCN1CCN1CCN([C@@H]2C[C@@H](c3ccc(F)cc3)c3ccccc32)CC1` (single isomer, unassigned) [+1, (+)trans-1-[3-(4-fluorophenyl]indan-1-yl]-4-[2-(2-imidazolidinon-1-yl)ethyl]piperazine]: the ED50 in assay [1] is 3.21 µmol/kg; in assay [2] it was greater than 97 µmol/kg; in the assay with 5-HT pressor responses, 0.009 µmol/kg. Further, the “Phenylephr. antg./5-HT antg. (ratio)” value in assay [1] (pithed rats) was 357. Further, in assay [5], the “1-5-HTP-antg. ED50” value was found to be 1.5 µmol/kg. The “Antihypertensive eff. SHR, max eff. in % of 5 mg/kg ip, DAP” value in assay [3] (setting [8]) is -47%. For the same compound, the “Antihypertensive eff. SHR, max eff. in % of 5 mg/kg ip, SAP” value in assay [3] (setting [9]) is -33%. Besides, the ED10 in assay [3] (setting [10]) is 1.2 µmol/kg; in assay [3] (setting [11]) it was 1.7 µmol/kg. The “peripheral or central action” value in assay [3] (in words) is listed as “mainly possess periferal action”. Also, the IC50 on 5-HT2 receptors came to 6 nM. Moreover, the “Effects on pressor response of 5-HT, % eff. of 0.02 mg/kg” value (“Effects … % eff. of 0.02 mg/kg” for short) with 5-HT pressor responses (pithed rats, jugular vein) was -81%.
On to `O=C1NCCN1CCN1CCN([C@@H]2C[C@@H](c3ccc(F)cc3)c3ccc(F)cc32)CC1` (single isomer, unassigned) [+2, (+)Trans-1-[3-(4-fluorophenyl)-6-fluoroindan-1-yl]-4-[2-(2-imidazolidinon-1-yl)ethyl]piperazine], for which the ED50 in assay [1] is 1.43 µmol/kg; in assay [2], greater than 61 µmol/kg. Further, the “Phenylephr. antg./5-HT antg. (ratio)” value in assay [1] (pithed rats) came out at 143. Besides, the “1-5-HTP-antg. ED50” value in assay [5] worked out at 0.10 µmol/kg. In assay [3] (setting [8]), the “Antihypertensive eff. SHR, max eff. in % of 5 mg/kg ip, DAP” value was -40%. In assay [3] (setting [9]), the “Antihypertensive eff. SHR, max eff. in % of 5 mg/kg ip, SAP” value is -31%. Further, the ED10 amounted to 0.8 µmol/kg in assay [3] (setting [10]) and 1.6 µmol/kg in assay [3] (setting [11]). For the same compound, the IC50 on 5-HT2 receptors was 4.3 nM. Further, in the assay with 5-HT pressor responses (pithed rats, jugular vein), the “Effects on pressor response of 5-HT, ED50” value came to 0.010 µmol/kg.
For the compound `CN1CCN(CCN2CCN([C@@H]3C[C@@H](c4ccc(F)cc4)c4ccc(F)cc43)CC2)C1=O` (single isomer, unassigned) [+3, (+)Trans-1-[3-(4-fluorophenyl)-6-fluoroindan-1-yl]-4-[2-(3-methyl-2-imidazolidinon-1-yl)ethyl]piperazine], the ED50 in assay [1] was 2.25 µmol/kg; in assay [2] it was greater than 91 µmol/kg; with 5-HT pressor responses it was 0.004 µmol/kg. In assay [1] (pithed rats), the “Phenylephr. antg./5-HT antg. (ratio)” value came out at 563. For the same compound, the “1-5-HTP-antg. ED50” value in assay [5] turned out to be 0.023 µmol/kg. Further, the change in vivo at 5 mg/kg was -52% in assay [3] (read-out: Antihypertensive eff. SHR, max eff. in % of 5 mg/kg ip, DAP, 5 mg/kg ip, diastolic pressure (DAP), max change within one hour) and -38% in assay [3] (read-out: Antihypertensive eff. SHR, max eff. in % of 5 mg/kg ip, SAP, 5 mg/kg ip, systolic pressure (SAP), max change within one hour). Besides, the IC50 on 5-HT2 receptors was 1.1 nM. For the same compound, the “Effects … % eff. of 0.02 mg/kg” value with 5-HT pressor responses (pithed rats, jugular vein) is -89%.
With `O=C1NCCN1CCN1CCN([C@@H]2C[C@@H](c3ccc(F)cc3)c3ccc(Cl)cc32)CC1` (single isomer, unassigned) [+20, Trans-1-[3-(4-fluorophenyl)-6-chloroindan-1-yl]-4-[2-(2-imidazolidinon-1-yl)ethyl]piperazine, L(+)tartrate], the “Effects on pressor response of Phenylephrine, % eff. of […]” value in assay [1] (pithed rats, […], jugular vein) is -34%. In addition, the ED50 in assay [2] worked out at 49 µmol/kg; in assay [4], 0.028 µmol/kg. In assay [3] (setting [8]), the “Antihypertensive eff. SHR, max eff. in % of 5 mg/kg ip, DAP” value was -45%. The “Antihypertensive eff. SHR, max eff. in % of 5 mg/kg ip, SAP” value in assay [3] (setting [9]) is recorded as -29%. Also, the “Effects … % eff. of 0.02 mg/kg” value with 5-HT pressor responses (pithed rats, jugular vein) is on record as -92%.
